From patent publication US10894941B2, “Microfluidic multi-well-based cell culture testing device” (QUANTA MATRIX CO,. LTD., priority 2013, dated 2021)

Key:
Format in all cases: cell-based
E. coli ATCC 25922 = experiment: double infection imaging in MAC chip, antibiotic susceptibility; conditions: gentamicin 32 μg/mL, erythromycin 8 μg/mL; 3 h incubation; 2% agarose
Experimental: (§1) The experimental conditions are as follows: • Strains • E. coli ATCC 25922 (rod-shaped strain) • E. faecalis ATCC 29212 (spherical strain) • Antibiotics • Gentamicin (concentration: 32 μg/mL)
(§2) […] At this time, the coexistence of the rod-shaped bacteria and the spherical bacteria was confirmed. It could also be confirmed whether double infection with the bacteria occurred.

E. faecalis ATCC 29212 = experiment: as above; conditions: gentamicin 32 μg/mL, erythromycin 8 μg/mL; 3 h incubation; 2% agarose
Experimental: as §1, §2

E. faecalis strain = experiment: antibiotic susceptibility testing (MIC) using the MAC chip; conditions: agarose, 37° C., 4-h incubation
Experimental: For this experiment, an E. faecalis solution was homogenized with liquid agarose and was injected into the chip. The agarose was gelled at room temperature. Thereafter, liquid penicillin as an antibiotic was injected into the well spaces. The chip was then incubated at an incubator at 37° C. and the results were observed after 4-h incubation.
The MIC of penicillin (2 μg/ml) could be obtained in 4 hours. In contrast, according to micro-dilution testing (MDT), a much longer time (18 hours) was consumed to obtain the MIC of penicillin.

Compound | susceptibility (E. coli ATCC 25922) | susceptibility (E. faecalis ATCC 29212) | MIC (E. faecalis strain) [µg/mL]
CC[C@H]1OC(=O)[C@H](C)[C@@H](O[C@H]2C[C@@](C)(OC)[C@@H](O)[C@H](C)O2)[C@H](C)[C@@H](O[C@@H]2O[C@H](C)C[C@H](N(C)C)[C@H]2O)[C@](C)(O)C[C@@H](C)C(=O)[C@H](C)[C@@H](O)[C@]1(C)O [Erythromycin] | Susceptible to E. faecalis ATCC 29212 only | Susceptible to E. faecalis ATCC 29212 only | –
Gentamicin | MICs are in the susceptible range for both strains | MICs are in the susceptible range for both strains | –
penicillin | – | – | 2
